# Test results as given in patent publication US20080021024A1, “Metalloprotease inhibitors” (Alantos Pharmaceuticals Holding, Inc., priority 2006, published 2008).
# Target: T1, catalytic domain of MMP-13 enzyme (Homo sapiens, UniProt P45452)
# T1 construct: 10 μL of a 50 nM stock solution of catalytic domain of MMP-13 enzyme (produced by Alantos) is added; made in house
# Assay: Assay for determining MMP-13 inhibition (fluorescent substrate)
# Assay type: biochemical
# Settings: Table 1, Summary of MMP-13 Activity for Compounds of Formula I
# Protocol: The MMP-13 inhibiting activity of the MMP-13 inhibiting compounds of the present invention may be measured using any suitable assay known in the art. A standard in vitro assay for MMP-13 inhibiting activity is described in Example 3000.
# The typical assay for MMP-13 activity is carried out in assay buffer comprised of 50 mM Tris, pH 7.5, 150 mM NaCl, 5 mM CaCl2 and 0.05% Brij-35. Different concentrations of tested compounds are prepared in assay buffer in 50 μL aliquots. 10 μL of a 50 nM stock solution of catalytic domain of MMP-13 enzyme (produced by Alantos) is added to the compound solution. The mixture of enzyme and compound in assay buffer is thoroughly mixed and incubated for 10 min at room temperature. Upon the completion of incubation, the assay is started by addition of 40 μL of a 12.5 μM stock solution of MMP-13 fluorescent substrate (Calbiochem, Cat. No. 444235). The time-dependent increase in fluorescence is measured at the 320 nm excitation and 390 nm emission by automatic plate multireader. The IC50 values are calculated from the initial reaction rates.
row,IC50 [nM],SMILES
1,< 1000,N#Cc1ccc(CNC(=O)c2cc(NC(=O)Cc3ccc4c(c3)OCO4)ncn2)cc1
2,< 1000,Cc1cc(CNC(=O)c2cc(NS(=O)(=O)Cc3ccc(-c4nn[nH]n4)cc3)ncn2)ccc1F

# Continued, compound first:
row,SMILES,IC50 [nM]
1,CC(C)(C(=O)Nc1cc(C(=O)NCc2ccc(F)cc2)ncn1)c1ccc(-c2nnn[nH]2)cc1,< 1000
2,CC(C(=O)Nc1cc(C(=O)NCc2ccc(F)cc2)ncn1)c1ccc(-c2nnn[nH]2)cc1 (centres unmarked),> 5
3,O=C(NCc1ccc(-c2nnn[nH]2)cc1)c1cc(NS(=O)(=O)Cc2ccccc2)ncn1,> 5
4,N#Cc1ccc(CC(=O)Nc2cc(C(=O)NCc3ccc(F)cc3)ncn2)cc1,< 1000
5,CS(=O)(=O)c1ccc(CC(=O)Nc2cc(C(=O)NCc3ccc(-c4nnn[nH]4)cc3)ncn2)cc1,> 5
6,O=C(Cc1ccc2c(c1)CCO2)Nc1cc(C(=O)NCc2ccc(-c3nnn[nH]3)cc2)ncn1,< 1000
